Source: US9662322B2 (TEVA PHARMACEUTICAL INDUSTRIES, LTD., priority 2014, dated 2017)

System: subjects with relapsing remitting multiple sclerosis (RRMS)
Experiment: ALLEGRO Phase III trial: patient-reported fatigue and health status (MFIS, SF-36, EQ5D)
Format: in vivo, human
Settings: over 24 months
Procedure: The following assessments were performed at specified time points: • 1. Vital signs were measured at each study visit. • 2. A physical examination is performed at months −1 (screening), 0 (baseline) 1, 3, 6, 12, 18 and 24 (termination/early discontinuation core study). In case of the 6 months extended study, additional examination was performed at month 30 (termination/early discontinuation of extended study). • 3. The following safety clinical laboratory tests were performed: • a. Complete blood count (CBC) with differential—at all scheduled visits. A reticulocyte count was added to the CBC at months 0 (baseline) and 24/30 (termination/early discontinuation). • b. […] Adverse Events (AEs) are monitored throughout the study. • 9. Concomitant medications are monitored throughout the study. • 10. […] MS functional Composite (MSFC) was assessed at months −1 (screening) (three practices for training purposes only), at month 0 (baseline), 6, 12, 18 and 24 (termination/early discontinuation). […] Subject-reported fatigue was assessed by the Modified Fatigue Impact Scale (MFIS) at months 0, 6, 12, 18, and 24 (termination/early discontinuation). […] The general health status was assessed by the EuroQoL (EQ5D) questionnaire at month 0 (baseline) and month 24 (termination/early discontinuation of the study). […]

## CCN(C(=O)c1c(O)c2c(Cl)cccc2n(C)c1=O)c1ccccc1 [Laquinimod, laquinimod]
  SF-36 physical component summary (PCS) course: remained stable
